Test results as given in the OPERA property sets (Mansouri et al. 2018).
Peptide text beside a SMILES is read from it.

Compound	logP
CCCc1cccc(OCC(=O)O)c1	2.71
CCCNCCC	1.67
CSc1nnc(C(C)(C)C)c(=O)n1N	1.7
Cc1ccc(S(I)=C(N(C)C)N(C)C)c([N+](=O)[O-])c1 (stereo unspecified)	0.23
Nc1nc(N)nc(-c2ccccc2[N+](=O)[O-])n1	0.49
COc1ccc(N2C(=O)CCC2=O)cc1	0.15
O=C1C=CC(=O)N1c1ccccc1	1.09
C#Cc1ccccc1	2.53
O=C(O)c1c[nH]c2ccccc12	1.99
O=[N+]([O-])c1ccccc1C(F)(F)F	2.58
NCc1ccc([N+](=O)[O-])cc1	1.06
N#Cc1cc(-c2ccccc2)nnc1NCCN1CCOCC1	1.89
Clc1ccc(-c2c(Cl)cccc2Cl)cc1	5.75
Cc1ccc([N+](=O)[O-])cc1N	1.87
CC(=O)NO	-1.59
O=C(NCCN1CCC(O)(c2ccc(Cl)cc2)CC1)c1ccc(F)cc1	2.85
OCc1cccc(Cl)c1	1.94
CC(C)Nc1nc(NC(C)C)nc(SC(F)F)n1	4.25
Cc1ccc(NC=O)cc1	1.61
CNC	-0.38
COc1ccco1	1.44
Cc1nc([N+](=O)[O-])cn1CCO	-0.59
Cc1cc2occ(C)c2c2oc(=O)ccc12	3.02

Compound	logP
O=C([O-])c1ccccc1O.[Na+]	-1.43
CN(C)C(N(C)C)=S(I)c1ccc(O)cc1 (stereo unspecified)	-0.88
N#CC(Cl)(Cl)Cl	2.09
CCOC(=O)CC	1.21
Cc1cn(C2OC(CO)C(O)C2O)c(=O)nc1N (stereo unspecified)	-2.01
Cc1ccc(O)c(C(=O)O)c1	2.78
CN(C)C(N(C)C)=S(I)c1ccc(C#N)cc1 (stereo unspecified)	-1.13
FC(Cl)(Cl)Cl	2.53
CCO[Si](OCC)(c1ccccc1)c1ccccc1	4.92
CCOC(=O)C(=Cc1cccc([N+](=O)[O-])c1)C(=O)OCC	2.71
ClC(Cl)=C(Cl)Cl	3.4
CC1(C)NC(=O)NC1=O	-0.48
CC1OC(OC2C(O)CC(OC3C(O)CC(OC4CCC5(C)C(CCC6C5CCC5(C)C(C7COC(=O)C7)CCC65O)C4)OC3C)OC2C)CC(O)C1O (stereo unspecified)	2.9
COP(=O)(OC)Oc1ccc([N+](=O)[O-])c(C(C)C)c1	2.57
CC1=Nc2ccc(Cl)cc2S(=O)(=O)N1	1.2
C=C	1.13
C[C@]12CCC(=O)C=C1CC[C@@H]1[C@@H]2CC[C@@]2(C)[C@H]1CC[C@]2(C)O	3.36
Nc1ccc2nc3ccccc3cc2c1	2.62
CCC(=O)CC	0.99
CCOc1ccc(NC(=O)OC2CCCC2)cc1OCC	3.33
O=C1CN=C(c2ccccc2C(F)(F)F)c2cc([N+](=O)[O-])ccc2N1	2.51
CCC(Cl)(CC)C(=O)NC(N)=O	1.4
Cc1onc(-c2c(Cl)cccc2Cl)c1C(=O)N[C@@H]1C(=O)N2[C@@H]1SC(C)(C)[C@@H]2C(=O)O	2.91

Compound	logP
Cc1ccc(C)n1N(C)c1ccc(N2CCOCC2)nn1	2.21
NCC(F)(F)F	0.24
O=[N+]([O-])c1ncn(CC(O)CF)n1 (stereo unspecified)	-0.59
CCn1cc(C(=O)O)c(=O)c2cnc(N3CCNCC3)nc21	-2.15
O=C(O)COc1cccc(Br)c1	2.22
CCNc1nc(Cl)nc(NC(C)(C)C#N)n1	2.22
Nc1cc(C(F)(F)F)cc(C(F)(F)F)c1	3.57
FC(F)(F)c1cccc(C2CNCCO2)c1 (stereo unspecified)	2.18
CCNCCNCC	0.21
CNC(=O)Oc1cc(C)cc(C)c1	2.23
CCC(C)OC(C)=O (stereo unspecified)	1.72
CCC(=O)OC(Cc1ccccc1)(c1ccccc1)C(C)CN(C)C (stereo unspecified)	4.18
CC(=O)Nc1cccc(NC(C)=O)c1	0.5
CC#N	-0.34
Cc1cc2c(cc1S(N)(=O)=O)S(=O)(=O)NCN2	-0.22
CC(=O)Oc1ccccc1C(C)C	2.78
CCCCNC(=O)n1c(NC(=O)OC)nc2ccccc21	2.12
OCCCl	0.03
COC(=O)c1ccc(N=NN(C)C)cc1	3.22
CCCCN	0.97
Cc1ccc(C(C)C)cc1	4.1
O=Nc1c(Br)cc2ccccc2c1O	2.93
O=C(O)Cc1cccc(I)c1	2.62

Compound	logP
CCCOC	1.21
Nc1ccc(/N=N/c2ccccc2)cc1	3.41
Cc1onc(-c2ccccc2)c1C(=O)NC1C(=O)N2C1SC(C)(C)C2C(=O)O (stereo unspecified)	2.38
O=C(O)COc1ccc(Cl)c([N+](=O)[O-])c1	1.85
CC(=O)N[C@@H](C)C(=O)NCC(=O)N[C@@H](Cc1ccccc1)C(N)=O (Ac-Ala-Gly-Phe-NH2)	-0.71
CC(C)c1ccc(C(N)=O)cc1	2.14
CC(CN(C)C)CN1c2ccccc2S(=O)(=O)c2ccccc21 (stereo unspecified)	2.51
COc1ccc(OC(=O)c2ccc(N)cc2O)cc1	3.07
CCOC(=O)c1ccccn1	0.87
O=C(Cc1cccs1)N[C@@H]1C(=O)N2C(C(=O)[O-])=C(C[n+]3ccccc3)CS[C@H]12	-1.62
COc1ccc(N=NN(C)C)cc1	2.99
c1ccc2nc3ccccc3nc2c1	2.84
O=C(c1ccccc1)n1c(=O)[nH]cc(F)c1=O	0.8
Nc1ccccc1Cl	1.9
NC(=O)Nc1cccc(Cl)c1	1.82
CC(C)C(=O)CC(=O)C(C)C	2.22
N#Cc1c(Cl)cccc1Cl	2.74
COc1cccc(-c2cc3ccccn3c2)c1	4.14
CCC1(CCC(C)C)C(=O)NC(=S)NC1=O	2.98
CC(C)c1ccc(O)c(=O)cc1	1.89
c1ccc(-c2ccncn2)cc1	1.92
CCCC(C)C1(CC)C(=O)N=C(O)NC1=O (stereo unspecified)	2.1
CCCC(=NOCC)C1C(=O)CC2(CCC(CC)CC2)OC1=O (stereo unspecified)	4.48

Compound	logP
CCC#N	0.16
O=C(O)CCCCCC(=O)O	0.61
NC(=O)NCc1ccccc1	0.73
c1ccc2c(N3CCCCC3)ncnc2c1	2.92
Nc1ccc(F)cc1F	1.54
COC(=O)C1C(C=C(Cl)Cl)C1(C)C (stereo unspecified)	3.63
Nc1ccc(S(=O)(=O)Nc2ccc(Cl)cc2)cc1	2.71
NC(=O)c1cnc2ccccc2c1	1.06
CCNC(=O)c1ccc(S(N)(=O)=O)cc1	0.03
N#CCCc1ccccc1	1.72
COc1cccc(S(C)(=O)=O)c1	0.76
O=[N+]([O-])c1ccc2nc(C(F)(F)F)[nH]c2c1	2.68
O=NN(CCCl)C(=O)NC1CCC(C(=O)O)CC1 (stereo unspecified)	1.68
CCCN(C)/N=N/c1ccc(C(N)=O)cc1	2.17
CCC(=O)NN	-1
CCCCNC(=O)c1ccc(S(N)(=O)=O)cc1	1.05
NC(=O)C1CCN(CCCN2c3ccccc3Sc3ccc(Cl)cc32)CC1	4.44
CN(N=O)C(=O)NC1C(O)OC(CO)C(O)C1O (stereo unspecified)	-1.45
COc1cccc(C(C)=O)c1	1.84
NC(=O)CBr	-0.52
COc1ccccc1C(N)=O	0.86
CNC(=O)Oc1ccc2c(c1)[C@]1(C)CCN(C)[C@@H]1N2C	1.58
CCNc1nc(NC(C)(C)C)nc(SC(F)F)n1	4.57

Compound	logP
O=C(O)c1ccc(N=C=S)cc1	3.52
NCCCCCC(=O)O	-2.95
CCC(C)c1ccccc1OC(=O)NC (stereo unspecified)	2.78
O=C1c2ccccc2C(=O)N1SC(Cl)(Cl)Cl	2.85
CCC(C)NC(=O)C=C(Cl)c1ccccc1 (stereo unspecified)	3.52
CC(C)Oc1cc(-n2nc(C(C)(C)C)oc2=O)c(Cl)cc1Cl	4.8
CN(C)C(=O)Nc1cccc([N+](=O)[O-])c1	1.46
C=C(C)C	2.34
COc1c(O)cc(Cl)c(Cl)c1Cl	3.77
NC(Cc1c[nH]c2ccc(F)cc12)C(=O)O (stereo unspecified)	-0.71
Cn1c(N)nc2cc(C#N)ccc21	1.11
C=CNP(=O)(NC=C)NC(=O)c1cccc(OC)c1	0.86
Cc1c[nH]c2ccccc12	2.6
Nc1ccc(C(=O)Oc2ccccc2Br)c(O)c1	3.74
CC(=O)N(c1ccc(N2CCOCC2)nn1)n1c(C)ccc1C	1.64
O=C(O)CC[Se]Cc1ccc([N+](=O)[O-])cc1	1.63
Cc1cccc2sc3nncn3c12	1.7
Nc1ccccc1C(F)(F)F	2.41
Nc1ccc2cc3ccccc3nc2c1	2.77
C=CCOc1cc(N)ccc1C(=O)O	1.25
O=c1[nH]cnc2n[nH]nc12	-1.97
COc1cc2c(cc1OC)[C@@]13CCN4CC5=CCO[C@H]6CC(=O)N2[C@H]1[C@H]6[C@H]5C[C@H]43	0.98
O=CNc1ccc([N+](=O)[O-])cc1	1.43

Compound	logP
FN(F)C(c1ccccc1)(c1ccccc1)c1ccccc1	3.73
c1cc2snnc2c2c1CCNC2	1.35
Cc1cnc(NS(=O)(=O)c2ccc(N)cc2)c(Br)c1	1.79
O=C1C=C(N2CCCC2)C(=O)C=C1N1CCCC1	1.97
Cc1n[nH]c(C(N)=O)c1[N+](=O)[O-]	-0.38
Cc1cccc(C)c1C	3.66
Clc1cc2oc3c(Cl)c(Cl)ccc3c2c(Cl)c1Cl	6.26
CC(=O)OCC(=O)[C@@]1(O)[C@H](OC(C)=O)C[C@H]2[C@@H]3CCC4=CC(=O)C=C[C@]4(C)[C@@]3(F)[C@@H](O)C[C@@]21C	1.92
CCCCOCc1ccccc1NC(=O)OCCN1CCCCC1	3.94
Oc1ccc(-c2ccccc2)cc1	3.2
ClC(Cl)=C(Cl)C(Cl)=C(Cl)Cl	4.78
CNC(=O)Oc1ccc(SC)c(C)c1	2.47
CCCCCCOC1OC(CO)C(O)C(O)C1O (stereo unspecified)	0.16
O=C(O)C(CO)c1ccccc1 (stereo unspecified)	0.77
CCc1ccc(S(N)(=O)=O)cc1	1.31
CN(C)Cc1ccccc1	1.98
CS(=O)(=O)c1ccc(Cl)cc1	1.06
CC(=O)Nc1ccc2c(c1)[nH]c1ccccc12	3.02
Cc1ncc([N+](=O)[O-])n1CCS(C)(=O)=O	-0.82
CCN(CC)CCOC(=O)C=Cc1cc(OC)c(OC)c(OC)c1	2.84
O=[N+]([O-])c1ccc(C=Cc2nccs2)o1	1.97
CC(C)CC#N	1.07
CC(Br)C(=O)O (stereo unspecified)	0.92
